In publication PMC11899342, “Novel Triazeneindole Antibiotics: Synthesis and Hit-to-Lead Optimization” (International Journal of Molecular Sciences, 2025):

Tested on: MRSA clinical isolates
Test: Antibiotic susceptibility profile of MRSA clinical isolates (EUCAST breakpoints)
Format: cell-based, Staphylococcus aureus
Excerpt: Clinical MRSA isolates with multidrug resistance were obtained from the collection of the Research Institute of Antimicrobial Chemotherapy, Smolensk State Medical Academy.

CO/N=C(\C(=O)N[C@@H]1C(=O)N2C(C(=O)O)=C(COC(C)=O)CS[C@H]12)c1csc(N)n1 [CEF, cefotaxime]
Drug sensibility profile (MRSA strain 1): S
Drug sensibility profile (MRSA strain 2): S
Drug sensibility profile (MRSA strain 3): S
Drug sensibility profile (MRSA strain 4): S
Drug sensibility profile (MRSA strain 5): S
Drug sensibility profile (MRSA strain 6): R
Drug sensibility profile (MRSA strain 7): S
Drug sensibility profile (MRSA strain 8): R
Drug sensibility profile (MRSA strain 9): S
Drug sensibility profile (MRSA strain 10): S
Drug sensibility profile (MRSA strain 12): S
Drug sensibility profile (MRSA strain 13): R
Drug sensibility profile (MRSA strain 14): S
Drug sensibility profile (MRSA strain 15): S
Drug sensibility profile (MRSA strain 16): S
Drug sensibility profile (MRSA strain 17): S
Drug sensibility profile (MRSA strain 18): S
Drug sensibility profile (MRSA strain 21): R
Drug sensibility profile (MRSA strain 23): S
Drug sensibility profile (MRSA strain 24): S
Drug sensibility profile (MRSA strain 25): S
Drug sensibility profile (MRSA strain 26): S S S S S S S
Drug sensibility profile (MRSA strain 27): R
Drug sensibility profile (MRSA strain 28): S
Drug sensibility profile (MRSA strain 29): S
Drug sensibility profile (MRSA strain 30): S
Drug sensibility profile (MRSA strain 31): R
Drug sensibility profile (MRSA strain 34): R
Drug sensibility profile (MRSA strain 35): R
Drug sensibility profile (MRSA strain 36): S S S S S S S
Drug sensibility profile (MRSA strain 40): S
Drug sensibility profile (MRSA strain 41): R
Drug sensibility profile (MRSA strain 42): S
Drug sensibility profile (MRSA strain 43): S
Drug sensibility profile (MRSA strain 44): R
Drug sensibility profile (MRSA strain 45): S
Drug sensibility profile (MRSA strain 46): S
Drug sensibility profile (MRSA strain 48): R
Drug sensibility profile (MRSA strain 49): S
Drug sensibility profile (MRSA strain 50): R
Drug sensibility profile (MRSA strain 51): S

CCC[C@@H]1C[C@@H](C(=O)N[C@@H]([C@H]2O[C@H](SC)[C@H](O)[C@@H](O)[C@H]2O)[C@H](C)Cl)N(C)C1 [CLIND, clindamycin]
Drug sensibility profile (MRSA strain 1): S
Drug sensibility profile (MRSA strain 2): R
Drug sensibility profile (MRSA strain 3): S
Drug sensibility profile (MRSA strain 4): S
Drug sensibility profile (MRSA strain 5): R
Drug sensibility profile (MRSA strain 6): R
Drug sensibility profile (MRSA strain 7): R
Drug sensibility profile (MRSA strain 8): S
Drug sensibility profile (MRSA strain 9): S
Drug sensibility profile (MRSA strain 10): S
Drug sensibility profile (MRSA strain 12): R
Drug sensibility profile (MRSA strain 13): S
Drug sensibility profile (MRSA strain 14): R
Drug sensibility profile (MRSA strain 15): S
Drug sensibility profile (MRSA strain 16): R
Drug sensibility profile (MRSA strain 17): S
Drug sensibility profile (MRSA strain 18): S
Drug sensibility profile (MRSA strain 21): R
Drug sensibility profile (MRSA strain 23): R
Drug sensibility profile (MRSA strain 24): S
Drug sensibility profile (MRSA strain 25): S
Drug sensibility profile (MRSA strain 26): S S S S S S S
Drug sensibility profile (MRSA strain 27): S
Drug sensibility profile (MRSA strain 28): S
Drug sensibility profile (MRSA strain 29): S
Drug sensibility profile (MRSA strain 30): S
Drug sensibility profile (MRSA strain 31): R
Drug sensibility profile (MRSA strain 34): S
Drug sensibility profile (MRSA strain 35): S
Drug sensibility profile (MRSA strain 36): S S S S S S S
Drug sensibility profile (MRSA strain 40): R
Drug sensibility profile (MRSA strain 41): S
Drug sensibility profile (MRSA strain 42): S
Drug sensibility profile (MRSA strain 43): S
Drug sensibility profile (MRSA strain 44): S
Drug sensibility profile (MRSA strain 45): R
Drug sensibility profile (MRSA strain 46): S
Drug sensibility profile (MRSA strain 48): R
Drug sensibility profile (MRSA strain 49): S
Drug sensibility profile (MRSA strain 50): R
Drug sensibility profile (MRSA strain 51): S

CCCCCCCCCC(=O)N[C@@H](Cc1c[nH]c2ccccc12)C(=O)N[C@H](CC(N)=O)C(=O)N[C@@H](CC(=O)O)C(=O)N[C@@H]1C(=O)NCC(=O)N[C@@H](CCCN)C(=O)N[C@@H](CC(=O)O)C(=O)N[C@H](C)C(=O)N[C@@H](CC(=O)O)C(=O)NCC(=O)N[C@H](CO)C(=O)N[C@@H]([C@H](C)CC(=O)O)C(=O)N[C@@H](CC(=O)c2ccccc2N)C(=O)O[C@@H]1C [Daptomycine]
Drug sensibility profile (MRSA strain 1): S
Drug sensibility profile (MRSA strain 2): S
Drug sensibility profile (MRSA strain 3): S
Drug sensibility profile (MRSA strain 4): S
Drug sensibility profile (MRSA strain 5): S
Drug sensibility profile (MRSA strain 6): S
Drug sensibility profile (MRSA strain 7): S
Drug sensibility profile (MRSA strain 8): S
Drug sensibility profile (MRSA strain 9): S
Drug sensibility profile (MRSA strain 10): S
Drug sensibility profile (MRSA strain 12): S
Drug sensibility profile (MRSA strain 13): S
Drug sensibility profile (MRSA strain 14): S
Drug sensibility profile (MRSA strain 15): S
Drug sensibility profile (MRSA strain 16): S
Drug sensibility profile (MRSA strain 17): S
Drug sensibility profile (MRSA strain 18): S
Drug sensibility profile (MRSA strain 21): S
Drug sensibility profile (MRSA strain 23): S
Drug sensibility profile (MRSA strain 24): S
Drug sensibility profile (MRSA strain 30): S
Drug sensibility profile (MRSA strain 31): S
Drug sensibility profile (MRSA strain 34): S
Drug sensibility profile (MRSA strain 35): S
Drug sensibility profile (MRSA strain 40): S
Drug sensibility profile (MRSA strain 43): S
Drug sensibility profile (MRSA strain 46): S
Drug sensibility profile (MRSA strain 48): S
Drug sensibility profile (MRSA strain 49): S
Drug sensibility profile (MRSA strain 50): S

CC[C@H]1OC(=O)[C@H](C)[C@@H](O[C@H]2C[C@@](C)(OC)[C@@H](O)[C@H](C)O2)[C@H](C)[C@@H](O[C@@H]2O[C@H](C)C[C@H](N(C)C)[C@H]2O)[C@](C)(O)C[C@@H](C)C(=O)[C@H](C)[C@@H](O)[C@]1(C)O [ERI, erythromycin]
Drug sensibility profile (MRSA strain 1): S
Drug sensibility profile (MRSA strain 2): R
Drug sensibility profile (MRSA strain 3): S
Drug sensibility profile (MRSA strain 4): S
Drug sensibility profile (MRSA strain 5): R
Drug sensibility profile (MRSA strain 6): R
Drug sensibility profile (MRSA strain 7): R
Drug sensibility profile (MRSA strain 8): R
Drug sensibility profile (MRSA strain 9): R
Drug sensibility profile (MRSA strain 10): S
Drug sensibility profile (MRSA strain 12): R
Drug sensibility profile (MRSA strain 13): S
Drug sensibility profile (MRSA strain 14): R
Drug sensibility profile (MRSA strain 15): S
Drug sensibility profile (MRSA strain 16): R
Drug sensibility profile (MRSA strain 17): S
Drug sensibility profile (MRSA strain 18): S
Drug sensibility profile (MRSA strain 21): R
Drug sensibility profile (MRSA strain 23): R
Drug sensibility profile (MRSA strain 24): S
Drug sensibility profile (MRSA strain 25): S
Drug sensibility profile (MRSA strain 26): S S S S S S S
Drug sensibility profile (MRSA strain 27): S
Drug sensibility profile (MRSA strain 28): R
Drug sensibility profile (MRSA strain 29): S
Drug sensibility profile (MRSA strain 30): I
Drug sensibility profile (MRSA strain 31): R
Drug sensibility profile (MRSA strain 34): I
Drug sensibility profile (MRSA strain 35): I
Drug sensibility profile (MRSA strain 36): S S S S S S S
Drug sensibility profile (MRSA strain 40): R
Drug sensibility profile (MRSA strain 41): S
Drug sensibility profile (MRSA strain 42): S
Drug sensibility profile (MRSA strain 43): I
Drug sensibility profile (MRSA strain 44): I
Drug sensibility profile (MRSA strain 45): R
Drug sensibility profile (MRSA strain 46): S
Drug sensibility profile (MRSA strain 48): R
Drug sensibility profile (MRSA strain 49): I
Drug sensibility profile (MRSA strain 50): R
Drug sensibility profile (MRSA strain 51): S
